Assay results taken from US4734418A, “Quinazoline compounds and antihypertensives” (priority 1984, dated 1988).
Where two headings read alike, the source gives them in different places.

What was measured:
[1] = tested on: Spontaneously Hypertensive Rats; assay: Test 1: antihypertensive effects (systolic tail artery blood pressure) and heart rate in spontaneously hypertensive rats, oral; format: in vivo, rat (male, SHR); conditions: for change in vivo at 1 mg/kg / change in vivo at 10 mg/kg: Rattus norvegicus; for change in vivo at 1 mg/kg / Change (%) in heart rate: SHR; for Change (%) in heart rate: maximum value; for change in vivo at 10 mg/kg: po
Protocol: The antihypertensive effects of the certain compounds of this invention were studied in the following manner.
Among male, spontaneously hypertensive rats (SHRs) of 20 weeks of age or older and 350-430 g heavy all of which had developed hypertension, those having systolic blood pressures of 180 mmHg or higher were used in groups, each of which was constituted of 3-4 of the rats. […] Besides, heart rates were also measured simultaneously. The compounds were each dissolved or suspended in a 0.5% methylcellulose solution and then administered orally.
*All administered orally at a dosage of 1 mg/Kg except for the compounds
**Each percent change in heart rate is indicated by the corresponding

Mouse = assay: Test 2: acute toxicity, mouse, oral; format: in vivo, male ddy-mice; conditions: fourteenth day
Protocol: The acute toxicity of certain compounds of this invention were studied in the following manner.
Namely, male ddy-mice of 5 weeks of age and male Wister rats of 8 weeks of age were fasted for 18 hours and used in groups each of which was constituted of 4-5 of mice or rats. The compounds were each dissolved or suspended in a 0.5% methylcellulose solution and administered orally (P.O.). On the fourteenth day after the administration, their toxicity were judged.
Each numeral set indicates the number of dead animals/the number of teste
animals. Hyphens (--) indicate that no tests were effected.

[2] = oral 1 mg/Kg, 1 hour, read-out: Antihypertensive effects, change (%) in blood pressure, 1 hour later
[3] = oral 1 mg/Kg, 3 hours, read-out: Antihypertensive effects, change (%) in blood pressure, 3 hours later
[4] = oral 1 mg/Kg, 6 hours, read-out: Antihypertensive effects, change (%) in blood pressure, 6 hours later
[5] = oral 1 mg/Kg, 24 hours, read-out: Antihypertensive effects, change (%) in blood pressure, 24 hours later

| Compound | change in vivo at 1 mg/kg [1, 2] | change in vivo at 1 mg/kg [1, 3] | change in vivo at 1 mg/kg [1, 4] | change in vivo at 1 mg/kg [1, 5] | Change (%) in heart rate ([1]; oral 1 mg/Kg) | Acute Toxicity, number of dead animals/number of tested animals (Mouse; 1 g/Kg P.O.) | Acute Toxicity, number of dead animals/number of tested animals (Mouse; 3 g/Kg P.O.) | change in vivo at 10 mg/kg ([1]; 1 h, read-out: Antihypertensive effects, change (%) in blood pressure, 1 hour later) | change in vivo at 10 mg/kg ([1]; 3 h, read-out: Antihypertensive effects, change (%) in blood pressure, 3 hours later) | change in vivo at 10 mg/kg ([1]; 6 h, read-out: Antihypertensive effects, change (%) in blood pressure, 6 hours later) | change in vivo at 10 mg/kg ([1]; 24 h, read-out: Antihypertensive effects, change (%) in blood pressure, 24 hours later) | Change (%) in heart rate ([1]; oral 10 mg/Kg) |
| --- | --- | --- | --- | --- | --- | --- | --- | --- | --- | --- | --- | --- |
| CCN1CCc2nc(N3CCN(c4nc(N)c5cc(OC)c(OC)cc5n4)CC3)ncc2C1=O [Example 17] | 0% | -20.2% | -27.9% | -12% | +10.8% | 0/5 | – | – | – | – | – | – |
| CCN1CCC(=O)c2cnc(N3CCN(c4nc(N)c5cc(OC)c(OC)cc5n4)CC3)nc21 [Example 21] | -17.2% | -23.2% | -23.6% | -3.4% | +7.4% | 0/4 | – | – | – | – | – | – |
| CCN1Cc2nc(N3CCN(c4nc(N)c5cc(OC)c(OC)cc5n4)CC3)ncc2C1=O [Example 23] | -11.7% | -21.9% | -27% | -2.6% | +23.1% | 0/5 | 0/5 | – | – | – | – | – |
| COc1cc2nc(N3CCN(c4ncc5c(n4)CN(C(C)C)C5=O)CC3)nc(N)c2cc1OC [Example 25] | -4.3% | -23.9% | -35.4% | -6.7% | +12.9% | 0/5 | – | – | – | – | – | – |
| CCN1C(=O)Cc2cnc(N3CCN(c4nc(N)c5cc(OC)c(OC)cc5n4)CC3)nc21 [Example 28] | -17.2% | -15.3% | -31.6% | -3.3% | +11.7% | 0/5 | – | – | – | – | – | – |
| COc1cc2nc(N3CCN(c4ncc5c(n4)N(C(C)C)C(=O)C5)CC3)nc(N)c2cc1OC [Example 30] | -7.4% | -24.7% | -32.1% | -8.8% | +11.7% | 0/5 | – | – | – | – | – | – |
| CCN1C(=O)CCCc2nc(N3CCN(c4nc(N)c5cc(OC)c(OC)cc5n4)CC3)ncc21 [Example 32] | -20.2% | -30.5% | -35.2% | -16.4% | +11.0% | 0/5 | – | – | – | – | – | – |
| CCN(CC)C(=O)c1cnc(N2CCN(c3nc(N)c4cc(OC)c(OC)cc4n3)CC2)nc1NC(C)C [Example 78] | -23.4% | -33.7% | -50.2% | -18.5% | +23.7% | – | – | – | – | – | – | – |
| CCNc1nc(N2CCN(c3nc(N)c4cc(OC)c(OC)cc4n3)CC2)ncc1C(=O)N(C)C [Example 79] | -27.9% | -33.7% | -45.2% | -21.2% | +22.3% | – | – | – | – | – | – | – |
| CCCN(CCC)C(=O)c1cnc(N2CCN(c3nc(N)c4cc(OC)c(OC)cc4n3)CC2)nc1NCC [Example 80] | -13.9% | -26% | -33.2% | -10.1% | +12.3% | – | – | – | – | – | – | – |
| CCn1ccc2nc(N3CCN(c4nc(N)c5cc(OC)c(OC)c(OC)c5n4)CC3)ncc2c1=O.Cl [Example 81, 4-Amino-6,7,8-trimethoxy-2-(4-(5,6-dihydro-6-ethyl-5-oxopyrido[4,3-d]pyrimidin-2-yl)piperazino)quinazoline hydrochloride] | -0.5% | -7.3% | -12.1% | -8.7% | +3.8% | – | – | – | – | – | – | – |
| CCn1ccc2nc(N3CCCN(c4nc(N)c5cc(OC)c(OC)cc5n4)CC3)ncc2c1=O [Example 82, 4-Amino-6,7-dimethoxy-2-(4-(5,6-dihydro-6-ethyl-5-oxopyrido[4,3-d]pyrimidin-2-yl)homopiperazino)quinazoline] | 0.5% | -6.9% | -8.8% | -6.4% | +5.8% | – | – | – | – | – | – | – |
| COc1cc2nc(N3CCN(c4ncc5c(=O)n(C)[nH]c5n4)CC3)nc(N)c2cc1OC.Cl [Example 83, 4-Amino-6,7-dimethoxy-2-(4-(2-methyl-3-oxo-2,3-dihydro-1H-pyrazolo[3,4-d]pyrimidine-6-yl)piperazino)quinazoline hydrochloride] | -3.9% | -4.4% | -5.3% | -0.5% | +5.6% | – | – | – | – | – | – | – |
| CCOC(=O)c1cnc(N2CCN(c3nc(N)c4cc(OC)c(OC)cc4n3)CC2)nc1C(=O)OCC [Example 84] | 0.5% | 0% | -1.5% | -0.5% | +2.2% | – | – | – | – | – | – | – |
| CCNC(=O)c1cnc(N2CCN(c3nc(N)c4cc(OC)c(OC)cc4n3)CC2)nc1C(=O)NCC [Example 85] | -1.5% | -7.3% | -12.2% | -3.9% | +3.5% | – | – | – | – | – | – | – |
| COc1cc2nc(N3CCN(c4ncc5c(n4)CN(CCN(C)C)C5=O)CC3)nc(N)c2cc1OC [Example 86] | 0.5% | 0% | -6.4% | -0.5% | +7.1% | – | – | – | – | – | – | – |
| COCCN1Cc2nc(N3CCN(c4nc(N)c5cc(OC)c(OC)cc5n4)CC3)ncc2C1=O [Example 87] | – | -15.2% | -21.6% | -2.5% | +17.7% | – | – | – | – | – | – | – |
| COc1cc2nc(N3CCN(c4ncc5c(n4)CN(CCO)C5=O)CC3)nc(N)c2cc1OC [Example 88] | 0.5% | -4.4% | -6.9% | -2% | +5.8% | – | – | – | – | – | – | – |
| COc1cc2nc(N3CCN(c4ncc5c(n4)CN(CCc4ccccc4)C5=O)CC3)nc(N)c2cc1OC [Example 89] | -2.4% | -13.3% | -13.8% | -2.9% | +5.8% | – | – | – | – | – | – | – |
| CCCCCCCN1Cc2nc(N3CCN(c4nc(N)c5cc(OC)c(OC)cc5n4)CC3)ncc2C1=O [Example 90] | 2.3% | -6.8% | -15.5% | -2.7% | +8.7% | – | – | – | – | – | – | – |
| COc1cc2nc(N3CCN(c4ncc5c(n4)CN(C4CCCCC4)C5=O)CC3)nc(N)c2cc1OC [Example 91] | -4% | -8% | -12.9% | -2.5% | +8.2% | – | – | – | – | – | – | – |
| COc1cc2nc(N3CCN(c4ncc([N+](=O)[O-])cc4[N+](=O)[O-])CC3)nc(N)c2cc1OC [Example 92] | – | – | – | – | – | – | – | 1.4% | -3.3% | -9.4% | -6.1% | +8.5% |
| CCN(CC)C(=O)c1ccc(N2CCN(c3nc(N)c4cc(OC)c(OC)cc4n3)CC2)nc1 [Example 93] | -4.5% | -9% | -10.5% | -5% | +8.0% | – | – | – | – | – | – | – |
| COc1cc2nc(N3CCN(c4ccc5ccccc5n4)CC3)nc(N)c2cc1OC.Cl [Example 94, 4-Amino-6,7-dimethoxy-2-(4-(2-quinolyl)piperazino)quinazoline hydrochloride] | -0.5% | -12.7% | -22.1% | -5.4% | +5.4% | – | – | – | – | – | – | – |
| CCn1ccc2nc(N3CCN(c4ncc5cc(OC)c(OC)cc5n4)CC3)ncc2c1=O [Example 95, 6,7-Dimethoxy-2-(4-(5,6-dihydro-6-ethyl-5-oxopyrido[4,3-d]pyrimidine-2-yl)piperazino)quinazoline] | 2.5% | -2.9% | -6.4% | -3.9% | +5.8% | – | – | – | – | – | – | – |
| CCn1ccc2nc(N3CCN(c4ncc5ccccc5n4)CC3)ncc2c1=O [Example 96, 2-(4-(5,6-Dihydro-6-ethyl-5-oxopyrido[4,3-d]pyrimidine-2-yl)piperazino)quinazoline] | 3% | -2.5% | -8% | -6.5% | +2.9% | – | – | – | – | – | – | – |
